Results on two compounds are retold here after article PMC6268022, “Substituted N-Benzylpyrazine-2-carboxamides: Synthesis and Biological Evaluation ^†” (Molecules, 2012).

In brackets after ≈: the same amount, converted by molar mass. Several values for one entry are separate records, joined by “and”; a condition that tells them apart may be missing. Equal entries are not always repeated. Where two headings read alike, the source gives them in different places.

Data set [1] has as its system M. avium CNCTC My 80/72. Put plainly: In vitro antimycobacterial microdilution panel method. Format: cell-based. The conditions noted are these: Mycobacterium avium, 336 h; CNCTC My 80/72, pH 6.0, 14 days.
Data set [2] has as its system M. kansasii CNCTC My 235/80. The description is as above. Format: cell-based. Particulars: Mycobacterium kansasii, 144 h; CNCTC My 235/80, pH 6.0, 6 days.
The subject of data set [3] is Trichophyton mentagrophytes 445. Briefly: In vitro antifungal microdilution broth method. Format: cell-based. Particulars: RPMI 1640 pH 7.0, 35 °C, read-out: TM MIC. The protocol:
The Department of Medical and Biological Sciences at the Faculty of Pharmacy in Hradec Králové, Charles University in Prague, Czech Republic, performed the antifungal susceptibility assays, which was carried out using microdilution broth method. Compounds were dissolved in DMSO and diluted in a twofold manner with RPMI 1640 medium with glutamine buffered to pH 7.0 (3-morpholinopropane-1-sulfonic acid). […] Drug-free controls were included. […] The MICs were determined after 24 and 48 h, respectively after 72 and 120 h for Trichophyton mentagrophytes (TM), of static incubation in dark at 35 °C. Tested species: […]

Data set [4] in a line: HPLC lipophilicity determination (capacity factor k / log k). Particulars: RP-HPLC, C18, MeOH 70%/H2O 30%, 30 °C.
Procedure: The separation process was controlled by Agilent ChemStation, version B.04.02 extended by spectral module (Agilent Technologies Inc.). A solution of MeOH (HPLC grade, 70%) with H2O (HPLC-Milli-Q Grade, 30%) was used as mobile phase. The total flow of the column was 1.0 mL/min, injection 20 µL, column temperature 30 °C. 210 nm as detection wavelength and 270 nm as monitor wavelength were chosen. The KI methanol solution was used for the dead time (TD) determination. Retention times (TR) of synthesized compounds were measured in minutes. The capacity factors k were calculated using Microsoft Excel according to formula k = (TR − TD)/TD, where TR is the retention time of the solute and TD denotes the dead time obtained via an unretained analyte. Log k, calculated from the capacity factor k, is used as the lipophilicity index converted to log P scale.
The test system of data set [5] is M. tuberculosis H37Rv CNCTC My 331/88. Put plainly: In vitro antimycobacterial microdilution panel method. Format: cell-based. The conditions noted are these: Mycobacterium tuberculosis, 336 h.
Data set [6] has as its system M. avium CNCTC My 152/73. Described as above. Format: cell-based. The conditions noted are these: Mycobacterium avium, 336 h; CNCTC My 152/73, pH 6.0, 14 days.
Data set [7] has as its system photosynthetic electron transport (PET) in spinach chloroplasts. Briefly: Inhibition of photosynthetic electron transport (oxygen evolution rate) in spinach chloroplasts. Format: biochemical, Spinacia oleracea L. The conditions noted are these: DCPIP photoreduction, pH 7.2. The protocol:
All studied compounds were evaluated for their photosynthetic electron transport (PET) inhibition in spinach chloroplasts, which was reflected in the inhibition of oxygen evolution rate. The photosynthesis-inhibiting activity of the compounds has been expressed as IC50 values. Compounds 4, 5, 7 and 8 were not tested due to their low solubility in tested medium.
Chloroplasts were prepared from spinach (Spinacia oleracea L.) according to Masarovičová and Kráľová [31]. The inhibition of photosynthetic electron transport (PET) in spinach chloroplasts was determined spectrophotometrically (Genesys 6, Thermo Scientific, Madison, WI, USA) using an artificial electron acceptor 2,6-dichlorophenol-indophenol (DCPIP) according to Kráľová et al. and the rate of photosynthetic electron transport (PET) was monitored as a photo-reduction of DCPIP. The measurements were carried out in a phosphate buffer (0.02 mol/L, pH 7.2) containing sucrose (0.4 mol/L), MgCl2 (0.005 mol/L) and NaCl (0.015 mol/L). The chlorophyll content was 30 mg/L in these experiments and the samples were irradiated (~100 W/m^2) from a 10 cm distance with halogen lamp (250 W) using a 4 cm water filter to prevent warming of the samples (suspension temperature 22 °C). The studied compounds were dissolved in DMSO due to their limited water solubility. […] The inhibitory efficiency of the studied compounds was expressed as the IC50 values, i.e., molar concentration of the compounds causing 50% decrease in the oxygen evolution relative to the untreated control.

Data set [8] concerns aromatic amino acids in the proteins of spinach chloroplasts situated in PS 2. Put plainly: Fluorescence of aromatic amino acids in spinach chloroplasts. It is filed as biochemical, Spinacia oleracea L. Particulars: λex = 275 nm, 0-0.11 mmol/L. The text has this: Figure 4 presents fluorescence emission spectra of aromatic amino acids of untreated spinach chloroplasts and of chloroplasts treated with increasing concentrations of compound 6 (see Figure 4A) as well as dependence of fluorescence intensity of chlorophyll a on concentration of compounds 2 (squares), 11 (triangles) and 6 (circles) (see Figure 4B). Binding of these compounds to aromatic amino acids occurring in photosynthetic proteins contribute to PET inhibition. The fluorescence emission spectra of chlorophyll a (Chla) and aromatic amino acids in spinach chloroplasts were recorded on fluorescence spectrophotometer F-2000 (Hitachi, Tokyo, Japan) using excitation wavelength λex = 436 nm for monitoring fluorescence of Chla and λex = 275 nm for monitoring fluorescence of aromatic amino acids, excitation slit 20 nm and emission slit 10 nm. The samples were kept in the dark 2 min before measuring. The phosphate buffer used for dilution of the chloroplast suspension was the same as described above. Due to low aqueous solubility the compounds were added to a chloroplast suspension in DMSO solution. The DMSO concentration in all samples was the same as in the control (10%). The chlorophyll concentration in chloroplast suspension was 10 mg/L.

Data set [9] deals with photosynthetic electron transport (PET) in spinach chloroplasts. Details: method as in earlier work. The conditions noted are these: standard, read-out: IC50 (PET inhibition); cited from earlier work.

`O=C(NCc1cccc(C(F)(F)F)c1)c1cncc(Cl)n1` [Compound 6, 6-Chloro-N-(3-trifluoromethylbenzyl)pyrazine-2-carboxamide]: the MIC was determined as 25 µg/mL (≈ 79.2 µM) in [1]; 100 µg/mL (≈ 317 µM) in [2]; 62.5 µM (≈ 19.7 µg/mL) in data set [3] (Trichophyton mentagrophytes, 445, 72 h, pH 7, evaluated after 72 h); 125 µM (≈ 39.5 µg/mL) in data set [3] (Trichophyton mentagrophytes, 445, 120 h, pH 7, evaluated after 120 h); 39 µM in [5] (MIC with respect to molecular weight, Šula's medium pH 6.0, 14 days, read-out: MIC M. tuberculosis H37Rv (value in parentheses)); 12.5 µg/mL in data set [5] (Šula's medium pH 6.0, 37 °C, 14 days, read-out: MIC M. tuberculosis H37Rv). Further, in data set [6], 100 µg/mL (≈ 317 µM) was the least that counted as inhibitory (MIC). Also, the log k in [4] turned out to be 0.4507. In data set [7], this compound displayed a half-inhibitory concentration (IC50) of 1210 µM. Also, the “fluorescence of aromatic amino acids” value in data set [8] is “quenching of their fluorescence at 334 nm”.

For `CN(C)C(=O)Nc1ccc(Cl)c(Cl)c1` [DCMU, 3-(3,4-dichlorophenyl)-1,1-dimethylurea], in data set [9], the IC50 is ~1.9 µM and 1.9 µM.
